Laboratory results reported in ChEMBL document CHEMBL1152041, “Design, Synthesis and Pharmacology of Cannabimimetic Indoles” (Bioorg Med Chem Lett, 1994).

Experiments:
[1] = system: Mus musculus; test: Tested in vivo for cannabimimetic activity in mouse; type: functional
[2] = biological target: Cannabinoid receptor (Homo sapiens, UniProt P34972+P21554); test: Binding affinity was determined in vitro against cannabinoid receptor by ability to displace [3H]CP-55940; type: protein assay

Row | SMILES | ED50 [1] [µmol/kg] | Ki [2] [µM]
1 | CCCCCCn1c(C)c(C(=O)c2cccc3ccccc23)c2ccccc21 | 14 | 0.048
2 | CC(=O)c1c(C)n(CCN2CCOCC2)c2ccccc12 | > 350 | > 10
3 | Cc1c(C(=O)c2cccc3ccccc23)c2cccc3c2n1[C@H](CN1CCOCC1)CO3 [WIN-552122] | 6.53 | –
4 | CCCCCCC(C)(C)c1ccc([C@@H]2C[C@H](O)CC[C@H]2CCCO)c(O)c1 [CP-55940] | 0.55 | –
5 | CCCCCC(C)n1c(C)c(C(=O)c2cccc3ccccc23)c2ccccc21 (racemic) | 35.6 | 0.033
6 | CCCCC[C@H](C)n1c(C)c(C(=O)c2cccc3ccccc23)c2ccccc21 | – | 0.072
7 | Cc1c(C(=O)c2cccc3ccccc23)c2ccccc2n1CCC1CCCCC1 | 65.8 | 0.046
8 | CCCCCn1c(C)c(C(=O)c2cccc3ccccc23)c2ccccc21 | 2.62 | 0.0095
9 | CCCCC[C@@H](C)n1c(C)c(C(=O)c2cccc3ccccc23)c2ccccc21 | 21.5 | 0.081
10 | CCCCCCCn1c(C)c(C(=O)c2cccc3ccccc23)c2ccccc21 | > 189 | > 10
11 | CCCCCc1cc(O)c2c(c1)OC(C)(C)[C@@H]1CCC(C)=C[C@@H]21 [DRONABINOL] | 4.7 | –
12 | CC(C)=CC(=O)c1c(C)n(CCN2CCOCC2)c2ccccc12 | > 103 | > 10
13 | CCCCn1c(C)c(C(=O)c2cccc3ccccc23)c2ccccc21 | – | 0.022
14 | Cc1c(C(=O)c2cccc3ccccc23)c2ccccc2n1CCc1ccccc1 | > 257 | 1.25
